{
  "source": "patent US8450313B2",
  "about": "“2,3-diaryl- or heteroaryl-substituted 1,1,1-trifluoro-2-hydroxypropyl compounds” (Hoffmann-La Roche Inc., priority 2009, dated 2013)",
  "data": [
    {"molecular_target": "T1, full length human recombinant glucocorticoid receptor (Homo sapiens, UniProt P04150)", "T1 construct": "It contains some partially purified full length human recombinant glucocorticoid receptor; purchased Panvera/Invitrogen PV4302", "T1 sequence (P04150 1-777)": "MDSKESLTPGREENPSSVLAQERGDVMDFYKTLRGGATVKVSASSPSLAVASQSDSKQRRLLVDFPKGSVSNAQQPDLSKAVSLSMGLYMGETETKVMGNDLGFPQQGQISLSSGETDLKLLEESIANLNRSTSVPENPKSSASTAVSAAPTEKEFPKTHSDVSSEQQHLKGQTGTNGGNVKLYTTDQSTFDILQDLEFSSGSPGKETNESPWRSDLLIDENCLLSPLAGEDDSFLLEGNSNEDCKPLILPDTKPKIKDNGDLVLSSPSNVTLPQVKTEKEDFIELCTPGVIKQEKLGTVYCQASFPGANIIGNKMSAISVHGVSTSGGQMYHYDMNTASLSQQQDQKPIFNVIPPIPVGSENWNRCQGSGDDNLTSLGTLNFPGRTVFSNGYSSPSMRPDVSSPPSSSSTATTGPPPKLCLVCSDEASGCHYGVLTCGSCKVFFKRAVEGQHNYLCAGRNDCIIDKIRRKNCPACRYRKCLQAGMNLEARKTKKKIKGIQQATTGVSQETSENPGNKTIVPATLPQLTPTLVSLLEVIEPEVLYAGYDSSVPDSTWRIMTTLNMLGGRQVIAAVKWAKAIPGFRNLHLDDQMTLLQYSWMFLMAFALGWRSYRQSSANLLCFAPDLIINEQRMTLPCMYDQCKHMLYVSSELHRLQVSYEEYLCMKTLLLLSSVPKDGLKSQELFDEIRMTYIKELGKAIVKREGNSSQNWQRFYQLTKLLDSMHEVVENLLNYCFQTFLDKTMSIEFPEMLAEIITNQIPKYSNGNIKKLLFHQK", "test": "Glucocorticoid Receptor Binding Assay (Glucocorticoid Receptor Competitor Assay far red kit, fluorescence polarization)", "settings": "competition with fluorescent GR ligand Fluormone GS Far Red, 3 hours at 22° C., pH 7.4; Ki calculated from IC50 by Cheng-Prusoff", "procedure,_shortened": "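Fluorescence polarization competition with partially purified full-length human recombinant GR, stabilizing peptide and Fluormone GS Far Red tracer in screening buffer pH 7.4; 3 hours at 22° C in the dark, read at 610–660 nm. IC50 from sigmoidal fit; Ki by Cheng-Prusoff.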", "units": {"Ki": "nM"}, "values": [
      {"smiles": "C[C@H](c1ccc(Oc2ncc(C(=O)O)cc2Cl)cc1Cl)[C@@](O)(c1ccc(C#N)cc1)C(F)(F)F", "note": "(relative stereo) [Example 155, 5-Chloro-6-{3-chloro-4-[2-(4-cyano-phenyl)-3,3,3-trifluoro-2-hydroxy-1-methyl-propyl]-phenoxy}-nicotinic acid]", "Ki": 8.9},
      {"smiles": "C[C@H](c1ccc(Oc2ccc(C(=O)O)c(Cl)n2)cc1Cl)[C@@](O)(c1ccc2c(c1)OCC(=O)N2C)C(F)(F)F", "note": "(relative stereo) [Example 158, 2-Chloro-6-{3-chloro-4-[3,3,3-trifluoro-2-hydroxy-1-methyl-2-(4-methyl-3-oxo-3,4-dihydro-2H-benzo[1,4]oxazin-7-yl)-propyl]-phenoxy}-nicotinic acid]", "Ki": 2.2},
      {"smiles": "C[C@@H](c1ccc(Oc2ccc(C(=O)O)c(Cl)n2)cc1Cl)[C@](O)(c1ccc2c(c1)N(C)S(=O)(=O)N2C)C(F)(F)F", "note": "(relative stereo) [Example 159, 2-Chloro-6-{3-chloro-4-[2-(1,3-dimethyl-2,2-dioxo-2,3-dihydro-1H-2λ6-benzo[1,2,5]thiadiazol-5-yl)-3,3,3-trifluoro-2-hydroxy-1-methyl-propyl]-phenoxy}-nicotinic acid]", "Ki": 2.1},
      {"smiles": "C[C@H](c1ccc(Oc2ccc(C(=O)O)c(Cl)c2)cc1Cl)[C@@](O)(c1ccc2c(c1)OCC(=O)N2C)C(F)(F)F", "note": "(relative stereo) [Example 160, 2-Chloro-4-{3-chloro-4-[3,3,3-trifluoro-2-hydroxy-1-methyl-2-(4-methyl-3-oxo-3,4-dihydro-2H-benzo[1,4]oxazin-7-yl)-propyl]-phenoxy}-benzoic acid]", "Ki": 1.3},
      {"smiles": "C[C@@H](c1ccc(Oc2ccc(C(=O)O)c(Cl)c2)cc1Cl)[C@](O)(c1ccc2c(c1)N(C)S(=O)(=O)N2C)C(F)(F)F", "note": "(relative stereo) [Example 161, 2-Chloro-4-{3-chloro-4-[2-(1,3-dimethyl-2,2-dioxo-2,3-dihydro-1H-2λ6-benzo[1,2,5]thiadiazol-5-yl)-3,3,3-trifluoro-2-hydroxy-1-methyl-propyl]-phenoxy}-benzoic acid]", "Ki": 3.6},
      {"smiles": "C[C@@H](c1ccc(-c2ccc(F)c(C(=O)O)c2)cc1Cl)[C@](O)(c1ccc2c(c1)N(C)S(=O)(=O)N2C)C(F)(F)F", "note": "(relative stereo) [Example 162, 3′Chloro-4′-[2-(1,3-dimethyl-2,2-dioxo-2,3-dihydro-1H-2λ6-benzo[1,2,5]thiadiazol-5-yl)-3,3,3-trifluoro-2-hydroxy-1-methyl-propyl]-4-fluoro-biphenyl-3-carboxylic acid]", "Ki": 10.8},
      {"smiles": "C[C@@H](c1ccc(-c2ccc(C(=O)O)c(F)c2)cc1Cl)[C@](O)(c1ccc2c(c1)N(C)S(=O)(=O)N2C)C(F)(F)F", "note": "(relative stereo) [Example 163, 3′-Chloro-4′-[2-(1,3-dimethyl-2,2-dioxo-2,3-dihydro-1H-2λ6-benzo[1,2,5]thiadiazol-5-yl)-3,3,3-trifluoro-2-hydroxy-1-methyl-propyl]-3-fluoro-biphenyl-4-carboxylic acid]", "Ki": 35.1},
      {"smiles": "C[C@H](c1ccc(Oc2ccc(F)c(C(=O)O)c2)cc1Cl)[C@@](O)(c1ccc2c(c1)OCC(=O)N2C)C(F)(F)F", "note": "(relative stereo) [Example 167, 5-{3-Chloro-4-[3,3,3-trifluoro-2-hydroxy-1-methyl-2-(4-methyl-3-oxo-3,4-dihydro-2H-benzo[1,4]oxazin-7-yl)-propyl]phenoxy}-2-fluoro-benzoic acid]", "Ki": 3.1},
      {"smiles": "C[C@H](c1ccc(-c2ccc(C(=O)O)c(F)c2)cc1Cl)[C@@](O)(c1ccc2c(c1)N(C)C(=O)C(C)(C)O2)C(F)(F)F", "note": "(relative stereo) [Example 168, 3′-Chloro-3-fluoro-4′-[3,3,3-trifluoro-2-hydroxy-1-methyl-2-(2,2,4-trimethyl-3-oxo-3,4-dihydro-2H-benzo[1,4]oxazin-6-yl)-propyl]-biphenyl-4-carboxylic acid]", "Ki": 609}
    ]}
  ]
}
